According to patent publication US9556179B2 (BRISTOL-MYERS SQUIBB COMPANY, priority 2012, dated 2017):

What was measured:
CK1ε = CK1ε (Homo sapiens (Human), UniProt P49674); assay: CK1ε kinase assay (Caliper LABCHIP electrophoretic separation of fluoresceinated peptide substrate and product); format: biochemical; settings: 200 pM enzyme, 50 μM ATP, 22 hours at room temperature
Outline: (§1)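 Kinase reactions ran 22 h at room temperature, were stopped with EDTA, and phosphorylated product was separated electrophoretically from unphosphorylated fluoresceinated peptide. Compounds were tested at eleven concentrations from 10 mM DMSO stocks. IC50 by non-linear regression.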

CK1δ = CK1δ (Homo sapiens (Human), UniProt P48730); assay: CK1δ kinase assay (Caliper LABCHIP electrophoretic separation of fluoresceinated peptide substrate and product); format: biochemical; settings: 200 pM enzyme, 50 μM ATP, 22 hours at room temperature
Outline: as §1

CK1ε, sequence (P49674 whole entry): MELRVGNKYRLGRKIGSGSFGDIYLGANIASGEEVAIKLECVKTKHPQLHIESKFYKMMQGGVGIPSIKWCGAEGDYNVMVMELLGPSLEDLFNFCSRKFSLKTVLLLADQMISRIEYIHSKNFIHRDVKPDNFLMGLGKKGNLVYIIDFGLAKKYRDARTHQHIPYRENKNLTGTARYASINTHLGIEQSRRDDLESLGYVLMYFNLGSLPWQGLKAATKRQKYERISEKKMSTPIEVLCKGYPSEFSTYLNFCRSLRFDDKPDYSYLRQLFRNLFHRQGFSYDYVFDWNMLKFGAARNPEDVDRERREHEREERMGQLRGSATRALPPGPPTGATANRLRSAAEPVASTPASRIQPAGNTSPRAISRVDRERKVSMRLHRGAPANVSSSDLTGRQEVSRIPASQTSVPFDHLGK
CK1δ, sequence (P48730 whole entry): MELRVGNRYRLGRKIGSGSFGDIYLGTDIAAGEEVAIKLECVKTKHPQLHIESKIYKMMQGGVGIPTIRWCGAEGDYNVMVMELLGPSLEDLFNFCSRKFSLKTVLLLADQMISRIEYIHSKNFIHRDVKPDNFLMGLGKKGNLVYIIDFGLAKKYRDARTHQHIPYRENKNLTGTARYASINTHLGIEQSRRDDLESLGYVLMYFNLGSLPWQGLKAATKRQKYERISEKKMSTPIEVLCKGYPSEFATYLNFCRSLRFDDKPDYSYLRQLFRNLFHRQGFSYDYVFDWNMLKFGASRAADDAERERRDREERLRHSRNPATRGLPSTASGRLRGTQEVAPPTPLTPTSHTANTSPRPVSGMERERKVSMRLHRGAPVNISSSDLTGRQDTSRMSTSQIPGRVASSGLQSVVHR

SMILES | IC50 (CK1ε) [nM] | IC50 (CK1δ) [nM]
COCCn1cnc(-c2ccc(F)cc2)c1-c1ccc2nc(NC(=O)c3ccnc(F)c3)cn2n1 [Compound 233, 2-fluoro-N-(6-(4-(4-fluorophenyl)-1-(2-methoxyethyl)-1H-imidazol-5-yl)imidazo[1,2-b]pyridazin-2-yl)isonicotinamide] | 1.17 | 0.306
O=C(Nc1cn2nc(-c3c(-c4ccc(F)cc4)ncn3CCOCCO)ccc2n1)c1ccnc(F)c1 [Compound 234] | 2.31 | 0.456
O=C(Nc1cn2nc(-c3c(-c4ccc(F)cc4)ncn3CC(F)(F)F)ccc2n1)c1ccnc(F)c1 [Compound 236] | 1.15 | 0.266
O=C(Nc1cn2nc(-c3c(-c4ccc(F)cc4)ncn3CC(F)F)ccc2n1)c1ccnc(F)c1 [Compound 237, N-(6-(1-(2,2-difluoroethyl)-4-(4-fluorophenyl)-1H-imidazol-5-yl)imidazo[1,2-b]pyridazin-2-yl)-2-fluoroisonicotinamide] | 1.35 | 0.365
NS(=O)(=O)CCCn1cnc(-c2ccc(F)cc2)c1-c1ccc2nc(NC(=O)c3ccnc(F)c3)cn2n1 [Compound 241] | 1.4 | 0.362
O=C(Nc1cn2nc(-c3c(-c4cccc(Cl)c4)ncn3CC(F)F)ccc2n1)c1ccnc(F)c1 [Compound 242, N-(6-(4-(3-chlorophenyl)-1-(2,2-difluoroethyl)-1H-imidazol-5-yl)imidazo[1,2-b]pyridazin-2-yl)-2-fluoroisonicotinamide] | 12 | 2.16
O=C(Nc1cn2nc(-c3c(-c4ccccc4)ncn3CC(F)F)ccc2n1)c1ccnc(F)c1 [Compound 243, N-(6-(1-(2,2-difluoroethyl)-4-phenyl-1H-imidazol-5-yl)imidazo[1,2-b]pyridazin-2-yl)-2-fluoroisonicotinamide] | 5.96 | 0.652
O=C(Nc1cn2nc(-c3c(-c4cccc(F)c4)ncn3CC(F)F)ccc2n1)c1ccnc(F)c1 [Compound 245, N-(6-(1-(2,2-difluoroethyl)-4-(3-fluorophenyl)-1H-imidazol-5-yl)imidazo[1,2-b]pyridazin-2-yl)-2-fluoroisonicotinamide] | 7.43 | 0.899
O=C(Nc1cn2nc(-c3c(-c4ccccc4F)ncn3CC(F)F)ccc2n1)c1ccnc(F)c1 [Compound 246, N-(6-(1,(2,2-difluoroethyl)-4-(2-fluorophenyl)-1H-imidazol-5-yl)imidazo[1,2-b]pyridazin-2-yl)-2-fluoroisonicotinamide] | 5.96 | 0.769
O=C(Nc1cn2nc(-c3c(-c4ccc(F)cc4)ncn3CC3CC(F)(F)C3)ccc2n1)c1ccnc(F)c1 [Compound 249, N-(6-(1-((3,3-difluorocyclobutyl)methyl)-4-(4-fluorophenyl)-1H-imidazol-5-yl)imidazo[1,2-b]pyridazin-2-yl)-2-fluoroiso-nicotinamide] | 1.1 | 0.371
O=C(Nc1cn2nc(-c3c(-c4ccc(F)cc4)ncn3CC(=O)N3CCCC3)ccc2n1)c1ccnc(F)c1 [Compound 250, 2-fluoro-N-(6-(4-(4-fluorophenyl)-1-(2-oxo-2-(1-pyrrolidinyl)ethyl)-1H-imidazol-5-yl)imidazo[1,2-b]pyridazin-2-yl)isonicotinamide] | 8.38 | 0.292
O=C(Nc1cn2nc(-c3c(-c4ccc(F)cc4)ncn3CCN3CCC(F)(F)CC3)ccc2n1)c1ccnc(F)c1 [Compound 251, N-(6-(1-(2-(4,4-difluoro-1-piperi-dinyl)ethyl)-4-(4-fluorophenyl)-1H-imidazol-5-yl)imidazo[1,2-b]pyridazin-2-yl)-2-fluoroiso-nicotinamide] | 5.38 | 0.385
O=C(Nc1cn2nc(-c3c(-c4ccc(F)cc4)ncn3CCOCC(F)(F)F)ccc2n1)c1ccnc(F)c1 [Compound 252, 2-fluoro-N-(6-(4-(4-fluorophenyl)-1-(2-(2,2,2-trifluoroethoxy)ethyl)-1H-imidazol-5-yl)imidazo[1,2-b]pyridazin-2-yl)isonicotinamide] | 2.51 | 0.347
Cn1cnc(Cn2cnc(-c3ccc(F)cc3)c2-c2ccc3nc(NC(=O)c4ccnc(F)c4)cn3n2)c1 [Compound 253, 2-fluoro-N-(6-(4-(4-fluorophenyl)-1-((1-methyl-1H-imidazol-4-yl)methyl)-1H-imidazol-5-yl)imidazo[1,2-b]pyridazin-2-yl) isonicotinamide] | 18 | 1.15
O=C(Nc1cn2nc(-c3c(-c4ccc(F)cc4)ncn3CCn3cccn3)ccc2n1)c1ccnc(F)c1 [Compound 254, 2-fluoro-N-(6-(4-(4-fluorophenyl)-1-(2-(1H-pyrazol-1-yl)ethyl)-1H-imidazol-5-yl)imidazo[1,2-b]pyridazin-2-yl)isonicotinamide] | 18.7 | 1.12
O=C(Nc1cn2nc(-c3c(-c4ccc(F)cc4)ncn3CCc3c[nH]cn3)ccc2n1)c1ccnc(F)c1 [Compound 255, 2-fluoro-N-(6-(4-(4-fluorophenyl)-1-(2-(1H-imidazol-4-yl)ethyl)-1H-imidazol-5-yl)imidazo[1,2-b]pyridazin-2-yl)isonicotinamide] | 2.45 | 0.386
CC(C)(C)C1CCC(n2cnc(-c3ccc(F)cc3)c2-c2ccc3nc(NC(=O)c4ccnc(F)c4)cn3n2)CC1 (stereo not drawn) [Compound 256, N-(6-(1-(4-tert-butylcyclohexyl)-4-(4-fluorophenyl)-1H-imidazol-5-yl)imidazo[1,2-b]pyridazin-2-yl)-2-fluoroisonicotinamide] | 230 | 10.2
O=C(Nc1cn2nc(-c3c(-c4ccc(F)cc4)ncn3C3CCCCC3)ccc2n1)c1ccnc(F)c1 [Compound 257, N-(6-(1-cyclohexyl-4-(4-fluoro-phenyl)-1H-imidazol-5-yl)imidazo[1,2-b]pyridazin-2-yl)-2-fluoroisonicotinamide] | 2.29 | 0.325
CC(C)(C)Cn1cnc(-c2ccc(F)cc2)c1-c1ccc2nc(NC(=O)c3ccnc(F)c3)cn2n1 [Compound 258, N-(6-(1-(2,2-dimethylpropyl)-4-(4-fluorophenyl)-1H-imidazol-5-yl)imidazo[1,2-b]pyridazin-2-yl)-2-fluoroisonicotinamide] | 6.56 | 0.393
Cn1cc(Cn2cnc(-c3ccc(F)cc3)c2-c2ccc3nc(NC(=O)c4ccnc(F)c4)cn3n2)cn1 [Compound 259, 2-fluoro-N-(6-(4-(4-fluorophenyl)-1-((1-methyl-1H-pyrazol-4-yl)methyl)-1H-imidazol-5-yl)imidazo[1,2-b]pyridazin-2-yl) isonicotinamide] | 3.17 | 0.314
O=C(Nc1cn2nc(-c3c(-c4ccc(F)cc4)ncn3CCN3CCCCC3=O)ccc2n1)c1ccnc(F)c1 [Compound 261, 2-fluoro-N-(6-(4-(4-fluorophenyl)-1-(2-(2-oxopiperidin-1-yl)ethyl)-1H-imidazol-5-yl)imidazo[1,2-b]pyridazin-2-yl)isonicotinamide] | 14.8 | 0.403
O=C(Nc1cn2nc(-c3c(-c4ccc(F)cc4)ncn3C3CC(F)(F)C3)ccc2n1)c1ccnc(F)c1 [Compound 262, N-(6-(1-(3,3-difluorocyclobutyl)-4-(4-fluorophenyl)-1H-imidazol-5-yl)imidazo[1,2-b]pyridazin-2-yl)-2-fluoroisonicotinamide] | 3.48 | 0.331
O=C(Nc1cn2nc(-c3c(-c4ccc(F)cc4)ncn3CCCn3ccnc3)ccc2n1)c1ccnc(F)c1 [Compound 263, 2-fluoro-N-(6-(4-(4-fluorophenyl)-1-(3-(1H-imidazol-1-yl)propyl)-1H-imidazol-5-yl)imidazo[1,2-b]pyridazin-2-yl)isonicotinamide] | 5.4 | 0.436
CC(C)(C)c1cc(Cn2cnc(-c3ccc(F)cc3)c2-c2ccc3nc(NC(=O)c4ccnc(F)c4)cn3n2)n[nH]1 [Compound 264] | 156 | 41.5
O=C(Nc1cn2nc(-c3c(-c4ccc(F)cc4)ncn3CCc3cn[nH]c3)ccc2n1)c1ccnc(F)c1 [Compound 265] | 0.719 | 0.147
O=C(Nc1cn2nc(-c3c(-c4ccc(F)cc4)ncn3CC(=O)N3CCOCC3)ccc2n1)c1ccnc(F)c1 [Compound 266, 2-fluoro-N-(6-(4-(4-fluorophenyl)-1-(2-(4-morpholinyl)-2-oxoethyl)-1H-imidazol-5-yl)imidazo[1,2-b]pyridazin-2-yl)isonicotinamide] | 14.1 | 0.416
O=C1CN(CCn2cnc(-c3ccc(F)cc3)c2-c2ccc3nc(NC(=O)c4ccnc(F)c4)cn3n2)CCN1 [Compound 267, 2-fluoro-N-(6-(4-(4-fluorophenyl)-1-(2-(3-oxo-1-piperazinyl)ethyl)-1H-imidazol-5-yl)imidazo[1,2-b]pyridazin-2-yl)isonicotinamide] | 1.77 | 0.287
NC(=O)Cn1cnc(-c2ccc(F)cc2)c1-c1ccc2nc(NC(=O)c3ccnc(F)c3)cn2n1 [Compound 268, N-(6-(1-(2-amino-2-oxoethyl)-4-(4-fluorophenyl)-1H-imidazol-5-yl)imidazo[1,2-b]pyridazin-2-yl)-2-fluoroisonicotinamide] | 7.57 | 0.419
Cn1ccc(Cn2cnc(-c3ccc(F)cc3)c2-c2ccc3nc(NC(=O)c4ccnc(F)c4)cn3n2)n1 [Compound 269, 2-fluoro-N-(6-(4-(4-fluorophenyl)-1-((1-methyl-1H-pyrazol-3-yl)methyl)-1H-imidazol-5-yl)imidazo[1,2-b]pyridazin-2-yl) isonicotinamide] | 9.39 | 1.08
O=C(Nc1cn2nc(-c3c(-c4ccc(F)cc4)ncn3Cc3cc(C4CC4)[nH]n3)ccc2n1)c1ccnc(F)c1 [Compound 270, N-(6-(1-((5-cyclopropyl-1H-pyrazol-3-yl)methyl)-4-(4-fluorophenyl)-1H-imidazol-5-yl)imidazo[1,2-b]pyridazin-2-yl)-2-fluoroiso-nicotinamide] | 72.5 | 9.45
